# Source: paper PMC5358776, “Insight into the mechanism of action of temporin-SHa, a new broad-spectrum antiparasitic and antibacterial agent” (PLoS ONE, 2017)
# pIC50: −log10 of the molar value. Where two headings read alike, the source gives them in different places. Where no end group is shown, it is not given here.
# Experiments:
# Gram-positive bacteria = settings: 7 Gram-positive strains of Table 3
# [1] = test system: L. infantum (antimony resistant) promastigotes; settings: antimony-resistant parasites
# Description: (§1) Antiparasitic activity was evaluated against trypanosomatids, such as Leishmania and Trypanosoma. Antileishmanial activity was determined either by a luminescence-based assay (L. infantum, L. major and L. braziliensis) or by cell counting (FACSCalibur flow cytometer, Becton-Dickinson Biosciences, Woburn, MA, USA) after staining with propidium iodide (L. tropica and L. amazonensis), as previously described [23], using promastigotes or axenic amastigotes (1.25 x 10^6 parasites/ml) in mid-log phase and 5-fold serial dilutions of synthetic temporin (50–3.1 μM, final concentrations). Antitrypanosomal activity against T. brucei gambiense and T. cruzi was assessed by cell counting, similar to the L. tropica and L. amazonensis analysis, after incubation of the parasites (96 h for T. brucei gambiense and 120 h for T. cruzi) with the synthetic temporin, as previously described [23]. The half maximal inhibitory concentration (IC50) value was determined with GraphPad Prism 6.0 software (GraphPad Software, La Jolla, CA, USA) using a sigmoidal dose response (variable slope) curve fitting equation. The results are expressed as the means of three independent experiments performed in triplicate (luminescence-based assays) or in duplicate (cell counting-based assays).
# E. coli ML-35p [2] = settings: MH broth, 10^6 cfu/ml; mean of 3 independent experiments in triplicate
# Description: (§2) Listeria ivanovii Li4pVS2 (kindly provided by Jean-Marc Berjeaud, Université de Poitiers, France), and Streptococcus pyogenes ATCC 19615 (ATCC) were cultured in brain heart infusion (BHI, Sigma-Aldrich) medium under the same conditions.
# (§3) Activity against bacteria and yeasts was assessed with a liquid growth inhibition assay performed in 96-well microtitration plates, according to a previously described protocol [14], using mid-logarithmic phase cultures diluted in Mueller-Hinton (MH, Dominique Dutscher) broth (LB broth for E. faecalis strain and YPD medium for yeasts/fungi) to an A630 value of 0.01 (10^6 cfu/ml) and 2-fold serial dilutions of synthetic temporin (200–1 μM, final concentrations). The minimal inhibitory concentration (MIC) was determined as the mean value of three independent experiments, each performed in triplicate with negative (H2O) and positive (0.7% formaldehyde) controls.
# P. aeruginosa ATCC 27853 = settings: MH broth, 10^6 cfu/ml; mean of 3 independent experiments in triplicate
# Description: as §2, §3
# E. faecalis ATCC 29212 = settings: LB broth, 10^6 cfu/ml; mean of 3 independent experiments in triplicate
# Description: as §2, §3
# Human THP-1 monocytes = settings: MTT, 72 h, 37°C, 1–60 μM; mean of 3 independent experiments in triplicate
# [3] = test system: L. infantum promastigotes; settings: 3 μM, at 180 min, HBSS
# T. cruzi epimastigotes = settings: 120 h incubation, cell counting; mean of 3 independent experiments in duplicate
# Description: as §1
# E. coli ML-35p [4] = assay: Time-kill assay; format: cell-based, Escherichia coli; settings: 120-min exposure, 12 μM, PBS, 10^6 cfu/ml
# Description: Time-kill assays were performed on bacteria and Leishmania infantum promastigotes. For bacteria (E. coli ML-35p and S. aureus ST1065, 10^6 cfu/ml), assays were performed as previously described, with final temporin concentrations of 6 and 12 μM. For parasite time-kill assays, Leishmania infantum promastigotes harvested in exponential phase were washed twice (1,000 x g, 10 min) with Hank's balanced salt solution (HBSS) supplemented with 20 mM glucose and then suspended in the same buffer to a density of 2.5 x 10^6 cells/ml. This suspension (800 μl) was incubated with 200 μl of a 5X temporin solution, and parasitic death was evaluated at different times by counting parasites (FACSCalibur) after staining with 1 μg/ml propidium iodide (Molecular Probes). Negative controls were assayed without peptides. Three experiments were carried out in triplicate for bacteria or in duplicate for parasites.
# Rat erythrocytes = settings: 1 h, 37°C, PBS, 2 x 10^7 cells; mean of 3 independent experiments in triplicate
# Description: (§4) Hemolytic assays were also performed using erythrocytes obtained from fresh blood samples of Wistar male rats (Charles River Laboratories, France). The hemolytic activity was measured by incubating the peptide (1–200 μM, final concentrations) with erythrocytes (2 x 10^7 cells) in PBS (100 μl) for 1 h at 37°C, as previously described [23]. A parallel incubation in the presence of 0.1% (v/v) Triton-X100 was carried out to determine the absorbance associated with 100% hemolysis. […] For THP-1-derived macrophages, viability was determined by Trypan blue staining after incubation with peptide (1–100 μM, final concentrations). LC50 (average concentration of the peptide producing 50% cell lysis) and IC50 values were determined with GraphPad Prism 6.0 software and correspond to the mean obtained from three independent experiments carried out with three (erythrocytes, THP-1 monocytes, HepG2 and HFF cells) or six replicates (THP-1-derived macrophages).
# (§5) IC50 or LC50 values were determined for the different human cells mentioned above in the cytotoxicity assays.
# [5] = test system: L. braziliensis promastigotes; settings: mean of 3 independent experiments in triplicate
# Description: (§6) L. infantum axenic amastigotes were differentiated from promastigotes in MAA medium (supplemented with 20% FCS) and were grown at 37°C in 5% CO2 [23].
# (§7) Antiparasitic activity was evaluated against trypanosomatids, such as Leishmania and Trypanosoma. Antileishmanial activity was determined either by a luminescence-based assay (L. infantum, L. major and L. braziliensis) or by cell counting (FACSCalibur flow cytometer, Becton-Dickinson Biosciences, Woburn, MA, USA) after staining with propidium iodide (L. tropica and L. amazonensis), as previously described [23], using promastigotes or axenic amastigotes (1.25 x 10^6 parasites/ml) in mid-log phase and 5-fold serial dilutions of synthetic temporin (50–3.1 μM, final concentrations). […] The half maximal inhibitory concentration (IC50) value was determined with GraphPad Prism 6.0 software (GraphPad Software, La Jolla, CA, USA) using a sigmoidal dose response (variable slope) curve fitting equation. The results are expressed as the means of three independent experiments performed in triplicate (luminescence-based assays) or in duplicate (cell counting-based assays).
# [6] = test system: L. infantum (intramacrophagic) amastigotes in THP-1-derived macrophages; settings: infected THP-1-derived macrophages, 4 days; mean of 2 experiments with six replicates
# Description: Leishmania infantum (strain MHOM/MA/67/ITMAP-263), Leishmania major (strain MHOM/SU/73/5-ASKH), Leishmania tropica (strain MHOM/SU/74/SAFK27), Leishmania amazonensis (strain MHOM/BR/73/M2269), and Leishmania braziliensis (strain MHOM/BR/75/M2904) promastigotes (kindly provided by Francine Pratlong, Centre National de Référence des Leishmania, Montpellier, France) were cultured at 26°C in SDM-79 medium supplemented with 10% fetal calf serum (FCS, Gibco) [23]. […] L. infantum-infected human macrophages were obtained from human THP-1 monocytes, as previously described [23, 78].
# Intramacrophagic leishmanicidal activity of the peptides was assessed by incubating L. infantum-infected human macrophages with 2-fold serial dilutions of peptide (50–2.5 μM, final concentrations) for 4 days, as previously described [23]. THP-1-derived macrophages were infected with promastigotes from late log phase at a density of 5 x 10^5 cells/well (ratio 10:1) in RPMI medium for 24 h at 37°C with 5% CO2. […] The results are expressed as the means of two experiments performed with six replicates.
# Human HepG2 = settings: MTT, 72 h, 37°C, 50–600 μM; mean of 3 independent experiments in triplicate
# T. brucei gambiense = settings: 96 h incubation, cell counting; mean of 3 independent experiments in duplicate
# Description: as §1
# [7] = test system: S. enterica (serotype Enteritidis); settings: MH broth, 10^6 cfu/ml; mean of 3 independent experiments in triplicate
# Description: as §3
# [8] = test system: L. infantum (axenic) amastigotes; settings: axenic amastigotes
# Description: as §6, §7
# Yeasts/fungi = settings: 3 yeast/fungal strains of Table 3
# [9] = test system: L. amazonensis promastigotes; settings: cell counting; mean of 3 independent experiments in duplicate
# Description: as §6, §7
# L. major promastigotes = settings: mean of 3 independent experiments in triplicate
# Description: as §6, §7
# Human fibroblasts (HFF) = settings: MTT, 72 h, 37°C, 1–100 μM; mean of 3 independent experiments in triplicate
# S. aureus ATCC 43300 = settings: strain resistant to methicillin and oxacillin; MH broth, 10^6 cfu/ml; mean of 3 independent experiments in triplicate
# Description: as §2, §3
# S. aureus ATCC BAA-44 = settings: multidrug-resistant strain; MH broth, 10^6 cfu/ml; mean of 3 independent experiments in triplicate
# S. cerevisiae = settings: YPD medium; mean of 3 independent experiments in triplicate
# Description: (§8) Candida albicans ATCC 90028, Candida parapsilosis ATCC 22019 (ATCC), and Saccharomyces cerevisiae (laboratory collection) were cultured in yeast peptone dextrose (YPD, Sigma-Aldrich) medium at 30°C.
# (§9) The minimal inhibitory concentration (MIC) was determined as the mean value of three independent experiments, each performed in triplicate with negative (H2O) and positive (0.7% formaldehyde) controls.
# Human erythrocytes = assay: Hemolytic assay; settings: 1 h, 37°C, PBS, 2 x 10^7 cells; mean of 3 independent experiments in triplicate
# Description: as §4, §5
# L. ivanovii = settings: MH broth, 10^6 cfu/ml; mean of 3 independent experiments in triplicate
# Description: as §2, §3
# C. albicans ATCC 90028 = settings: YPD medium; mean of 3 independent experiments in triplicate
# Description: as §8, §9
# [10] = test system: promastigotes of several species of Leishmania; settings: read-out: IC50 (range over Leishmania species); promastigotes of L. infantum, L. major, L. amazonensis, L. braziliensis
# Description: as §1
# K. pneumoniae ATCC 13883 = settings: MH broth, 10^6 cfu/ml; mean of 3 independent experiments in triplicate
# Description: as §3
# [11] = test system: L. infantum promastigotes
# Description: as §6, §7
# Gram-negative bacteria = settings: 6 Gram-negative strains of Table 3
# S. aureus ST1065 = settings: MH broth, 10^6 cfu/ml; mean of 3 independent experiments in triplicate
# Description: as §3
# [12] = test system: C. parapsilosis ATCC 22019; settings: YPD medium; mean of 3 independent experiments in triplicate
# Description: as §8, §9
# E. coli ATCC 25922 = settings: MH broth, 10^6 cfu/ml; mean of 3 independent experiments in triplicate
# Description: as §2, §3
# [13] = test system: Human THP-1-derived macrophages; assay: Cytotoxicity, Trypan blue staining; settings: 1–100 μM, mean of 3 independent experiments, six replicates
# Description: as §4, §5
# S. pyogenes ATCC 19615 = settings: MH broth, 10^6 cfu/ml; mean of 3 independent experiments in triplicate
# Description: as §2, §3
# A. baumannii ATCC 19606 = settings: MH broth, 10^6 cfu/ml; mean of 3 independent experiments in triplicate
# Description: as §3
# S. aureus ATCC 25923 = settings: MH broth, 10^6 cfu/ml; mean of 3 independent experiments in triplicate
# Description: as §3
substance,measurement,setting,value
"FLSGIVGMLGKLF-NH2 [SHa, temporin-SHa]",MICGM (geometric mean of the MIC values),Gram-positive bacteria,6 µM
same,pIC50,[1],4.85
same,MIC,E. coli ML-35p [2],10 µM
same,MIC,P. aeruginosa ATCC 27853,50 µM
same,MIC,E. faecalis ATCC 29212,12 µM
same,pIC50,Human THP-1 monocytes,< 4.22
same,killing,[3],38%
same,pIC50,T. cruzi epimastigotes,4.77
same,killing,E. coli ML-35p [4],approximately 93%
same,LC50,Rat erythrocytes,25 µM
same,pIC50,[5],5.15
same,pIC50,[6],5.05
same,pIC50,Human HepG2,3.25
same,pIC50,T. brucei gambiense,4.85
same,MIC,[7],25 µM
same,pIC50,[8],4.70
same,MICGM (geometric mean of the MIC values),Yeasts/fungi,31.1 µM
same,pIC50,[9],4.89
same,pIC50,L. major promastigotes,4.89
same,pIC50,Human fibroblasts (HFF),< 4.00
same,MIC,S. aureus ATCC 43300,6 µM
same,MIC,S. aureus ATCC BAA-44,6 µM
same,MIC,S. cerevisiae,12 µM
same,LC50,Human erythrocytes,25 µM
same,MIC,L. ivanovii,6 µM
same,MIC,C. albicans ATCC 90028,25 µM
same,pIC50,[10],4.74 to 5.15
same,MIC,K. pneumoniae ATCC 13883,12 µM
same,pIC50,"[11]; medium with serum, mean of 3 independent experiments in triplicate",4.74
same,pIC50,[11]; serum-free medium (values in parentheses),5.10
same,MICGM (geometric mean of the MIC values),Gram-negative bacteria,14.4 µM
same,MIC,S. aureus ST1065,6 µM
same,MIC,[12],100 µM
same,MIC,E. coli ATCC 25922,10 µM
same,LC50,[13],60 µM
same,MIC,S. pyogenes ATCC 19615,6 µM
same,MIC,A. baumannii ATCC 19606,6 µM
same,MIC,S. aureus ATCC 25923,3 µM
